This is an account of results in patent US20130040291A1, “Detection and Quantification of Cellular Stress Response Resolution Pathway Expression and Functionality and the Effects of Agents or Conditions Thereupon” (priority 2011, published 2013).

In assay [1] the test system is CDNR4 cells. The experiment in a line: Determination of the SRID-50% level of 6-TG (calibrated stress conditions). The assay is classed as cell-based, murine. As to the method: The calibrated stress conditions and the SRID-x % level are determined ideally using parental, control, or vehicle-exposed cells. This portion of the assay requires that several variables, including cell plating density, calibrated stress conditions level, and duration of stress conditions exposure be optimized simultaneously. These variables are interdependent such that each affects the outcome of the other, thereby making this portion of the assay one of the most critical. To achieve high sensitivity for detection of assay endpoints, it is important that the maximum number of cells be evaluated; however, optimal calibrated stress conditions are achieved at relatively low cell plating densities. In addition, cell plating densities and the SKID-x % level of stress inducing agent chosen for use in the assay must be such that fewer than one positive endpoint per well occurs in the assay. Using cell survival as an example, if multiple surviving cell clones are identified in the same well(s) during an experiment, then the cell plating density must be reduced and/or the SRID-x % level must be increased so that the frequency of occurrence of surviving clones is reduced to less than one per well. Thus, optimization of these variables is necessary.
Pilot studies that evaluate a range of cell plating densities and a range of calibrated stress conditions levels for the stress inducing agent of choice are used and are applied to untreated, control or parental cells. It is advisable to use a low plating density that results in rapid expression of stress resolution pathways (within 3 to 4 days where possible), or as quickly as possible after calibrated stress conditions exposure. In spite of potentially significant differences between cells of different types from different tissues and from different species, preliminary results from the SR assay support the conclusion that the optimal plating density for many cell types falls within a predictable range. […] These values can serve as starting points for empirical determination of the optimal cell plating density for the cells of interest to be used in the assay.
After estimating the optimal cell plating density, dose response curves are generated for the calibrated stress conditions agent of interest. For experiments in which cell survival is the phenotype of interest, work with the assay completed to date supports the conclusion that calibrated stress conditions levels that reduce expression of pro-survival pathways to a level that results in survival of one or fewer clones in 50% of the wells of a 96 well plate (defined as the SRID-50%) is the optimal level for assessment of damage avoidance pro-survival pathways. Use of these levels also results in a sufficiently robust expression of damage tolerance paths to make it possible to evaluate differences or changes in expression of these pathways between cell types and/or between differing exogenous exposures. Because cell plating density and level of calibrated stress inducing agent are inter-dependent, it may be necessary to perform several pilot studies using differing cell plating densities and a range of stress-response inducing levels to find the optimal combination of use with the cell type of interest in the assay.
There are two limits associated with Poisson distribution principles that must be considered in selecting the SRID-x % level of stress inducing agent. First, stress induction levels that result in a response frequency, for the response type of interest, that is near or equal to 100% of the sites being evaluated should be avoided and the same considerations are true for stress induction levels resulting in responses frequencies near or equal to 0%. The SR assay cannot accurately quantify response frequencies near 100% or near 0%, and this limitation forms the one of the factors affecting the selection of the SRID-x % level. […]

The test system of assay [2] is CDNR4 cells. The assay is classed as cell-based, murine. As to the method: Following the cessation of the calibrated stress conditions exposure, the SR assay raw data is collected in the form of positive and negative wells (or cell growth sites) and in the form of viable or dead cell clones. The next steps of the assay involve expanding viable clones and determining their phenotypes. When the phenotype of interest being investigated in the SR assay is cell survival, the clones can be sub-classified using the testing listed in Table 6. This testing is performed as follows. Clones are removed from the tissue culture vessels in which they were placed before the start of the calibrated stress conditions exposure (using methods appropriate for the cell type), and subdivided into 4 different aliquots. Each aliquot is re-plated in an appropriate tissue culture vessel in medium containing the following. For one aliquot, the medium is growth medium (conditioned medium may be used) only; for a second aliquot the medium is supplemented with guanosine or folic acid at a concentration sufficient to enhance the survival and expansion of HPRT^− clones; for a third aliquot, the medium contains the same level of agent as used for the calibrated stress condition exposure, and the fourth aliquot is placed in HAT-medium containing an amount of aminopterin that is sufficient to induce growth arrest and/or cell death in Phen-HPRT^− cells of the cell type of interest (see above). Cell morphology (where informative for cell behavior and/or gene expression) and cell growth are monitored over the next 2, to 4 days to determine the response of the cells to these differing conditions. Cell clones can be subjected to additional testing as desired to evaluate further endpoints of interest and/or can be cryopreserved for future evaluations.
To subgroup Phen-ah clones as Phen-alt-rev or Phen-alt-irr, a representative group of these clones is tested further by subjecting the clones to repeated rounds of exposure to the calibrated stress conditions. Other stress inducing agents also may be used. Each exposure cycle is followed by a period of time to allow the cells to recover, and thus, to resolve the stress environment. After each exposure round, the percentage of cells that are resistant to the stress inducing agent or condition is recorded. […] The parental cell response that has been used in the examples below is defined as greater than 99% sensitivity to the calibrated stress conditions agent or condition, as evidenced by cell cycle arrest and/or cell death following exposure to the SR induction agent. Other stress response endpoints may be used and will depend upon the nature of the stress inducing agent used; these endpoints are incorporated herein.
The murine mammary epithelial cells designated CDNR4 were grown in their preferred growth medium (42% DMEM, 42% Hams F-12, 12% FBS, 1% 100×L-glutamine, 1% pen-strep, 0.5% to 1% bovine pituitary extract) until approximately 6 million cells were available. Cells were removed from the expansion flasks, counted, and replated at a rate of 500,000 cells per […] flask in growth medium. The flasks were assigned randomly to one of two groups: a vehicle-alone exposure (control group); an ENU-exposure (treated) group. […] For group 1 flasks, a volume of growth medium equal to the volume of ENU was added to the flasks. The cells were exposed to this solution for 1 hour at 37° C.; at the end of this time the solution was removed, the cells were washed with PBS at 37° C., and the cells were re-fed with fresh growth medium.
At the end of 2 weeks, the cells were removed from the flasks with trypsin/EDTA and passed through a 20 to 25 micron pore size sterile Nytran filter. The cell suspension was evaluated by light microscopy for evidence of large clumps, and was re-filtered if necessary using a new sterile Nytran filter of the same size to remove any apparent large clumps of cells. […]

Assay [3] deals with immortalized human bronchial epithelial cell line #2. The experiment in a line: Determination of the SRID-10% dose of 6-TG, cell line #2. It is filed as cell-based. Particulars: 600 to 1000 cells per well, 96 well plates. On the procedure: (§1) Two immortalized, human bronchial epithelial cells lines were expanded in their preferred growth medium and plated at the rate of 600 to 1000 cells per well in tissue culture wells of 96 well plates. Both cell lines were immortalized using hTERT technology. The cells were exposed to variable 6-TG concentrations that ranged up to 150 micrograms/ml 6-TG. For cell line #1; the SRID-10% dose of 6-TG was determined to be 110 micrograms/ml; for cell line #2 the SRID-10% dose of 6-TG was determined to be 60 micrograms/ml 6-TG. The mCE of cell line #1 was 41%; for cell line #2 it was 25%. Thus, the total pro-survival pathway functionality for cell line #1 was […] (0.41×110 microgms/ml 6-TG); for cell line #2 this value was calculated to be 15.

Assay [4] relates to immortalized human bronchial epithelial cell line #1. The experiment in a line: Determination of the SRID-10% dose of 6-TG, cell line #1. It is filed as cell-based. Particulars: 600 to 1000 cells per well, 96 well plates. As to the method: as §1

Some results are limits rather than exact numbers.

On to `Nc1nc2nc[nH]c2c(=S)[nH]1` [6-TG, 6-thioguanine], for which, in assay [1] (6TG 1 to 100 micrograms/ml), the “time to cell cycle arrest of all cells after start of 6-TG exposure” value was no more than 24 h. In addition, the SRID-50% (1 viable clone in approximately 50% of wells of a 96-well plate) in assay [1] (CDNR4 cells, low plating density, 6-TG for four days) worked out at 35 µg/mL. Further, the SRID-50% in assay [1] (vehicle-exposed/parental CDNR4 cells, 500-600 cells per well of 96 well plate, 6-TG for four days) was found to be 35 micrograms/ml. Also, in assay [2] (6TG 30 micrograms/ml, one to 3 days after start, 600 cells per well), the “death of the cells during SR induction phase” value was “greater than 90%”. In addition, the “cell death after the end of SR induction phase” value in assay [2] (two to 3 days after 4 days of 6TG 30 micrograms/ml, all plates) is roughly 100%. In addition, the “SRID-10% dose of 6-TG” value was 60 micrograms/ml 6-TG in assay [3] and 110 micrograms/ml in assay [4].
With `CN(N=O)C(N)=O` [MNU, methylnitrosourea], the “SR assay results with MNU as pre-exposure agent in place of ENU” value in assay [2] (compared with the ENU experiments) is reported as “similar”.
